Legend:
REF52 cells [1] = experiment: UV-induced apoptosis, Vybrant Apoptosis Assay; assay type: cell-based, rat; details: Tax-expressing REF52 following UV exposure
Description: (§1) Tax-expressing cells were treated with different UV doses (0, 20 and 50 j/m^2) and assessed at different time points post-transduction (4, 8, 12 and 24 hrs). Cells were separated into living, necrotic or apoptotic populations using the triple source fluorescent labeling, Vybrant Apoptosis Assay kit (Molecular Probes) according to the manufacturer's recommendations.
In addition to repair, at least two key events occured in the UV-induced cellular DNA damage response. These are initiation of cell cycle arrest and induction of apoptosis. The ability of Tax-expressing REF52 cells to undergo cell cycle arrest and apoptosis was assessed. Tax-expressing and control cells were subjected to UV irradiation and examined for apoptotic events and cell cycle profile. Prior to exposure to UV, the percent of non-apoptotic, apoptotic and necrotic cells were examined. The three populations were identified using the Vybrant assay. […] The same results were seen using several Tax-expressing cells including GM00010B (data not shown).

REF52 and p53d cells = experiment: Flow cytometry cell cycle analysis (G1 checkpoint) after UV; assay type: cell-based; details: synchronized at G0, UV treatment, 20% serum; wild type or deleted p53 background
Description: For cell cycle analysis, cells were collected by gentle scraping following a rapid EDTA rinse and concentrated by low speed centrifugation and washed in 1×PBS, and fixed with cold 70% ethanol. Cells were stained with a PI solution (PBS 1×, RNase A [10 μg/ml], and Propidium Iodide [50 μg/ml]) followed by cell sorting analysis. FACS data acquired were analyzed by CellQuest software.
To determine whether the failure in cell cycle arrest was due to a failed G1 checkpoint, cells were synchronized at G0 by serum starvation. The cells were then cultured in 20% serum to stimulate return to cell cycle following UV treatment. Cell cycle was determined by total DNA content as described above. […] This was true for either a wild type or deleted p53 background. Therefore, the failure in cell cycle arrest is due at least in part to a failed G1 arrest.

p53−/− cells [2] = experiment: Percent surviving cells after sublethal UV; assay type: cell-based; details: 24 hours after treatment
Description: (§2) It was reasoned that if Tax-expressing cells display impaired damage response in a p53 independent manner then cells both deleted for p53 and expressing Tax would be more prone to apoptotic cell death in response to UV. To test this hypothesis, the apoptotic response of both Tax-expressing and control p53−/− cells was examined. Tax-expressing and control cells were exposed to sublethal doses of UV and examined for percent surviving cells 24 hours after treatment.

[3] = test system: p53 mutant background (HeLa); experiment: Percent surviving cells after sublethal UV; assay type: cell-based; details: 24 hours after treatment, vs control cells
Description: as §2

[4] = test system: Hela cells and p53 deleted cell line; experiment: Cytokinesis block cell cycle progression assay in p53 repressed/deleted cells; assay type: cell-based; details: exposed to UV, cytochalasin B, 36 hours; partial (25%) and 100% transduction
Description: (§3) Asynchronous cell cultures were seeded on coverslips and exposed to UV irradiation and allowed to recover for 1 hour. Cytochalasin B was added and the cultures incubated for 36 hours. The coverslips were fixed with paraformaldehyde/methanol and stained with propidium iodide. Slides were prepared and cell nuclei examined by microscopy. Bi-nucleus cells were considered dividing.
To test this hypothesis, the cell cycle arrest response was examined in Tax-expressing and control p53−/− cells. Tax-expressing and control Hela cell groups were subjected to the cytokinesis block cell cycle progression assay as described above. Each cell group was exposed to UV and incubated with cytochalasin B one hour later. The cells were examined after 36 hours for the presence of binucleated dividing cells. Hela cells transduced to express Tax at 25% efficiency. Tax-expressing Hela cells were identified by immunofluorescence using anti-Tax mouse monoclonal antibody and FITC-conjugated anti-mouse secondary antibody. The nuclei were stained with propidium iodide. Hela and Tax-expressing Hela formed binuclei indicating normal division. […] In experiments using 100% transduction of Tax, 1000 cell events were counted.

REF52 cells [5] = experiment: Global nucleotide excision repair assay (unscheduled DNA synthesis, BrdU); assay type: cell-based, rat; details: G1 synchronized cells, UV 20 j/m^2, BrdU
Description: REF52 cells were seeded onto glass coverslips and transduced to express Tax at 25% efficiency. Sub-confluent Tax-expressing REF52 cells were cultured in 0.5% serum for 48 hrs, to synchronize at G0, prior to irradiation. The cells were released from G0 with addition of complete medium. At four hours post-release, the cells were irradiated with UV light (20 j/m^2) using a UV chamber-GS Gene Linker (Bio-Rad) and incubated for 30 min with 10 μM BrdU containing medium. The cells were then washed 4× with PBS and fixed in 4% paraformaldehyde. Cells were permeabilized with 2 minutes incubation in 100% methanol and washed 4× with PBS. The prepared cells were then reacted with both anti-Tax and anti-BrdU in PBS (containing 2% BSA). Primary antibodies were removed by washing 4× with 1% Tween 20 in PBS (PBS-Tween). Secondary conjugated antibodies were reacted for one hour at room temperature (RT). The cells were then washed with PBS-Tween and the slips were inverted onto slides with Vecta Shield (Vector Laboratories, CA). Incorporation of BrdU into the nucleus of cells at G1 corresponded to unscheduled repair synthesis.
A failure in damage-induced cell cycle arrest would result in reduced repair efficiency and could explain the Tax-associated NER deficiency. […]

REF52 cells [6] = experiment: Host cell reactivation assay (nucleotide excision repair capacity); assay type: cell-based, rat; details: Tax-expressing REF52 vs control GFP-expressing REF52; UV-damaged CAT reporter
Description: pSV2-CAT reporter plasmid was damaged ex vivo by exposure to 1000 j/m^2 of Uv-C light using a UV chamber-GS Gene Linker (Bio-Rad). REF52 and XP-A cells were transfected with 4 μg of UV-irradiated or non-irradiated pSV2-CAT plasmid together with an undamaged reporter plasmid (pMSV-Luc), and with or without Tax plasmid. Forty-eight hours after calcium phosphate transfection, cells were pelleted and resuspended in 250 μl of 250 mM Tris pH8.0. For the Luciferase assay, 25 μl of the total cellular extract was added to 50 μl of luciferase substrate. Luciferase activity was quantitated in a Luminometer. Cat assays were performed in parallel with the same cells as described (Semmes, O., et al., J. Virol. 66(12):7183-92 (1992)). Cat activity was normalized to luciferase activity of the same extract. Repair activity was calculated by setting normalized cat activity from cells cotransfected with non-irradiated pSV2-CAT to 100%. The repair activity of duplicate cells cotransfected with irradiated pSV2-CAT was reported as a percentage of that activity.
In examining the biological response of Tax-expressing cells to UV-induced DNA damage, efficient Nucleotide Excision Repair (NER) ability was tested. The Host Cell Reactivation Assay (HCRA) was used as a measure of NER capacity in Tax-expressing REF52 cells. […] Thus, Tax expression results in reduced NER capacity as measured by HCRA.

p53 and p21 = experiment: Immunoblot of p53 and p21 after UV; assay type: cell-based, rat; details: UV-induced DNA damage; Tax-expressing and control REF52
Description: Approximately 2×10^6 cells were harvested and proteins extracted with […] Mammalian Protein Extraction Reagent (Pierce). 50 μl of 4× Laemmli buffer was added to the lysate. […] of the lysate was electrophoresed through a 10% SDS polyacrylamide gel. The proteins were electroblotted onto an Immobolin-P membrane (Millipore), and probed with the indicated primary antibody and the appropriate secondary alkaline phosphatase-conjugated antibody. Immunoreactivity was detected via Western Star chemiluminescence protein detection (Tropix).
To further analyze the p53 response in Tax-expressing cells, both Tax-expressing and control REF52 cells were examined for stabilization of steady-state p^53 and transient induction of p21. Since induction of p21 is a key event in p53-mediated cell cycle arrest, analysis of the p21 levels in Tax-expressing cells could determine the integrity of this signal. Tax-expressing and control cells were exposed to UV and harvested for western analysis pre-exposure and at eight hours and twenty four hours post exposure. […] Thus, one p53-dependent signal for cell cycle arrest, transient induction of p21, was intact.

p53+/+ cells (REF52) = experiment: Percent surviving cells after sublethal UV; assay type: cell-based, rat; details: 24 hours after treatment, vs control cells
p53−/− cells [7] = experiment: UV-induced apoptosis, Vybrant Apoptosis Assay; assay type: cell-based; details: UV 20 and 50 J/m^2, 12 and 24 hours
Description: as §1
The early apoptotic response of Tax-expressing p53−/− cells was also observed. In this series of experiments the cell groups were exposed to 0 J/m^2, 20 J/m^2 and 50 J/m^2 and apoptosis measured at 12 and 24 hours (FIG. 7). […] This level of UV-induced apoptosis is equivalent to that seen in cells defective in NER (FIG. 3).

REF52 cells [8] = experiment: Cytokinesis block cell cycle progression assay; assay type: cell-based, rat
Description: as §3
Next, the cell cycle response of Tax-expressing cells was measured. REF52 and REF+Tax cells were subjected to the cytokinesis block cell cycle arrest assay to determine the intactness of the damage-induced checkpoint. In this assay, asynchronous cells were exposed to UV and incubated with cytochalasin B one hour later. The cell population was examined 36 hours later and assessed for division events. […] In contrast REF52 cells exposed to UV light initiated cell cycle arrest and presented a predominately (>90%) mononuclear cell population. However, Tax-expressing REF52 cells, exposed to UV, presented nearly 75% of the population as binucleated cells indicating a failure to arrest in cell cycle in response to UV-induced DNA damage. For each data point, 1000 cells were analyzed.

p53 = experiment: Nuclear accumulation of p53 after UV (immunostaining); assay type: cell-based, rat; details: Tax-expressing REF52 in response to UV damage
Source text: A key player in initiation of the UV-repair response and activation of cell cycle arrest is p53. Activation of p53 is signaled by an accumulation of P53 in the nucleus of cells exposed to UV light. To examine whether Tax-expressing cells display this early p53 response, REF52 cells were transduced with suboptimal viral titers to produce an estimated 50% transduction efficiency. The cells were exposed to UV and examined for nuclear expression of p53.

Tax was tested, and the “apoptotic response to DNA damage” value (REF52 cells [1]) was “normal apoptotic response”, the “percentage of cells leaving G1” value (REF52 and p53d cells) was “consistent and significant increase” and the “cell death in response to UV exposure” value (p53−/− cells [2]) was “significant cell death”. The “percent of surviving cells” value [3] was “no decreased percent of surviving cells”, the “percent of binucleated cells” value [4] was greater than 72% and the “UV-induced unscheduled DNA synthesis” value (REF52 cells [5]) was “indistinguishable from control cells”. The NER capacity (REF52 cells [6]) was “significantly reduced”, the “steady-state protein levels of p53” value (p53 and p21) was “stabilization of steady-state protein levels of p53” and the “percent of surviving cells” value (p53+/+ cells (REF52)) was “no decreased percent of surviving cells”. The apoptosis (p53−/− cells [7]) was “Significant apoptosis”, the binucleated cells (REF52 cells [8]; exposed to UV, cytochalasin B, examined 36 hours later, 1000 cells per data point) was roughly 75% and the “binucleated cell profile without UV” value (REF52 cells [8]; unexposed to UV) was “same profile as in the absence of Tax”. The “nuclear accumulation of P53” value (p53) was “strong nuclear accumulation of P53”.

— patent publication US20050214945A1, “Htlv-I tax induced killing of p53 null cancer cells” (Eastern Virginia Medical School, priority 2002, published 2005)
